Data as given in the SangsterLogP compilation.

Legend:
[1] = method code SF-CR+AS, from Fauchere, J.; Pliska, V. (1983). Hydrophobic parameters of aminoacid side chains from the partitioning of N-acetylaminoacid amides. Eur J Med Chem, 18(4)369-375.; settings: pH 7.1
[2] = method code SF-RC, from Fauchere, J.; Pliska, V. (1983). Hydrophobic parameters of aminoacid side chains from the partitioning of N-acetylaminoacid amides. Eur J Med Chem, 18(4)369-375.; settings: pH 7.1

| SMILES | logD [1] | logD [2] |
| --- | --- | --- |
| CC(=O)NC(=O)C(N)CSSCC(N)C(=O)NC(C)=O (configuration not stated) | -1.7 | – |
| CC(=O)N[C@@H](Cc1cnc[nH]1)C(N)=O | – | -1.7 |
| CC(=O)N[C@@H](CC(C)C)C(N)=O | – | -0.13 |
| CC(=O)N1CCC[C@H]1C(N)=O | – | -1.34 |
| CCC(C)C(NC(C)=O)C(N)=O (configuration not stated) | – | -0.03 |
| CC(=O)N[C@H](C(N)=O)C(C)C | – | -0.61 |
| CC(=O)NC(CC12CC3CC(CC(C3)C1)C2)C(N)=O (configuration not stated) | – | 1.9 |
| CC(=O)NC(CCC(N)=O)C(N)=O (configuration not stated) | – | -2.05 |
| CC(=O)N[C@@H](CO)C(N)=O | – | -1.87 |
| CC(=O)N[C@H](CS)C(N)=O | -0.29 | – |
| CC(=O)N[C@@H](CC(N)=O)C(N)=O | – | -2.41 |
| CC(=O)NC(C(N)=O)C(C)O (configuration not stated) | – | -1.57 |
